Assay results published in patent publication US4789543A, “Neutral technetium 99-m complexes useful as radiodiagnostic agents” (E. I. Du Pont de Nemours and Company, priority 1984, dated 1988).

Key:
[1] = tested on: hepatobiliary transit (liver, gall bladder and gastro-intestinal tract); assay: Visualization of hepatobiliary transit by scintillation camera after intravenous injection (rabbit); assay type: in vivo, male New Zealand Albino rabbit
Experimental: A lyophylized vial of HEPATOLITE™ (New England Nuclear Corporation's brand of Technetium Tc^99m Disofenin) is labelled with ^99m Tc-pertechnetate in accordance with manufacturer's directions. At least 1 mCi of the labelled preparation is injected intravenously into a 2.5 Kg male New Zealand Albino rabbit. The rabbit is positioned under a Searle Pho-Gamma scintillation camera in such a way that the liver and gastro-intestinal tract are within the field of view.
Greater than 1 mCi of the ^99m Tc-Cl(SO2)-DMPE complex from either Example 1 or 2 is injected into a rabbit as in Example 3.

hepatobiliary transit = details: commercially available agent, background statement; cited from earlier work

CC(C)c1cccc(C(C)C)c1NC(=O)CN(CC(=O)O)CC(=O)O (99mTc complex, metal not drawn) [Disofenin]
sequential images from the time of injection ([1]; 2.5 Kg male rabbit, at least 1 mCi i.v.): initial liver uptake with gradual visualization of the gall bladder and gastro-intestinal tract, analogous to the diagnostically efficacious results obtained in clinical studies of normal healthy humans | time to images of the liver, gall bladder and gastro-intestinal tract (hepatobiliary transit) ([1]; rabbit, > 1 mCi (complex) or at least 1 mCi (Disofenin) i.v., sequential images): about 30 minutes | time to obtain an image of the hepatobiliary transit (hepatobiliary transit): ≤ 30 min
